Experimental data as given in article PMC7828228, “Babesia Bovis Ligand-Receptor Interaction: AMA-1 Contains Small Regions Governing Bovine Erythrocyte Binding” (International Journal of Molecular Sciences, 2021).
Ends that are not written are not given here.

How the values were obtained:
[1] = tested on: bovine erythrocytes; experiment: Radiolabelled peptide bovine erythrocyte binding assay (initial screen)
Description: Peptide selection was based on the degree of conservation and the presence of functionally constricted regions found throughout B. bovis ama-1 gene. Twelve peptides were synthesised using the tert-butoxycarbonyl (t-Boc) strategy and solid-phase synthesis methodology. Cysteine residues were replaced by serine residue to avoid oxidation; a tyrosine residue was added to peptides lacking one in their native sequences to enable radiolabelling. The peptides were analysed using reversed-phase high-performance liquid chromatography (RP-HPLC) and MALDI-TOF mass spectrometry (Bruker Daltonics) after having been cleaved by the low–high hydrogen fluoride technique. Every peptide (10 μL) diluted at 1mg/mL in 4-(2-hydroxyethyl)-1-piperazineethanesulphonic acid buffered saline (HBS) was individually radiolabelled for 15 min using 3 μL Na^125I (100 mCi/mL; ARC) and 15 μL chloramine T (2.75 mg/mL). […] A gamma counter (Packard Cobra II) was used for measuring/quantifying single samples’ radioactivity.
(§1) The assays for every B. bovis AMA-1-derived synthetic peptide binding to bovine erythrocytes were carried out as described for P. falciparum, with some modifications. […] HABP bovine erythrocyte binding selection criteria were determined according to that established for P. falciparum. […]

[2] = tested on: trypsin-, chymotrypsin-, and neuraminidase-treated bovine erythrocytes; experiment: Binding assay with enzyme-treated erythrocytes; settings: 37 °C, 1h 30 min, untreated RBC as control, SD below 5%
Description: A blood sample was obtained by jugular venepuncture from a clinically healthy Normande 18month-old bull and collected in anticoagulant tubes. The animal was properly restrained/fastened and then its head was secured by a strap and rope. After locating the external jugular vein and applying pressure, the area was disinfected with ethanol for inserting the needle at a 30° angle and 20 mL blood samples were collected in tubes containing sodium citrate using the closed system. The above procedures and animal maintenance and handling were carried out at the Remanso farm, according to guidelines for the care of large animals established by Universidad de Ciencias Aplicadas y Ambientales (U.D.C.A)’s ethics committee (regulated by agreement No. 285/2008) using the protocol described in the minute 201901. The collected blood was washed thrice with HBS (1:1 ratio) to eliminate the sera and the leucocyte layer by spinning at 1600× g for 5 min for each run. A 60% erythrocyte solution was incubated at 37 °C for 1h 30 min with trypsin (1 mg/mL), chymotrypsin (1 mg/mL) and neuraminidase (100 μU/mL). After three washes using 250× g for 3 min, 4 × 10^5 erythrocytes were incubated with 5 μM […] at 37 °C for 45 min in the dark. An assay was carried out with erythrocytes treated at 37 °C for 30 min or with 0.05% or 0.005% triton X-100 for 15 min at room temperature (RT) for using them as cell lysis controls. A FACSC Canto II cytometer (BD) was used for determining cell viability by analysing 100,000 events.
as §1

[3] = target: bovine RBCs; experiment: Saturation assay of radiolabelled HABPs; format: binding; settings: saturation analysis; 7.5 × 10^7 RBCs, radiolabelled HABP 0–6000 nM, ± unlabelled peptide ~26 μM, 90 min at RT, 1:1 interaction model
Description: Modified binding assays were carried out to determine kinetic constants associated with B. bovis AMA-1 HABP binding interaction with bovine RBCs. Briefly, 7.5 × 10^7 RBCs were incubated with a wide range of concentrations of each radiolabelled HABP (0–6000 nM) in the absence or presence of unlabelled peptide (~26 μM) at final 245 μL volume. Samples were incubated for 90 min at RT and then washed twice with HBS before measuring cell-associated radioactivity on a gamma counter. Equilibrium dissociation constants (kD), equivalent to the ligand concentration (moles/litre) occupying half of the receptors, were calculated by equilibrium phase curve (using a 1:1 interaction model). Hill coefficients (nH) were calculated by taking saturation results; positive cooperativity was assumed if nH had values higher than 1 which could have been the result of a binding site’s increased affinity due to a ligand’s previous binding to another site. Conversely, nH values lower than 1 would have indicated negative cooperativity (also called antagonism) and the first ligand molecule’s binding would have reduced the probability of a second molecule binding.

[4] = tested on: bovine erythrocyte membrane receptor; experiment: Cross-linking assay (BS3, SDS-PAGE, autoradiography); format: binding; settings: autoradiogram, Figure 2c
Description: Cross-linking assays were used in triplicate for evaluating B. bovis AMA-1 interaction with any membrane receptor. The assay consisted of incubating radiolabelled peptide with 7.5 × 10^7 bovine erythrocytes (v/v) at RT for 2 h at 4 rpm. A competition assay was used as control using an excess of non-radiolabelled peptide. The mixture was incubated for two hours at RT with 0.4 µg/mL bis(sulphosuccinimidyl) suberate (BS3) and then washed thrice with HBS. The cells were then lysed in 30 µL lysis buffer (15 µL buffer A (50 mM Tris-HCl, 100 mM NaCl and 0.1 mM EDTA) and 15 µL buffer B (0.5 M Tris-HCl, 10% SDS (w/v), 25% glycerol, 0.5% (w/v) bromophenol blue and […] β-mercaptoethanol, pH 6.8)) and spun at 14,000× g for 10 min. SDS-PAGE was used for separating the proteins and radioactivity signals were observed by autoradiography. Radiolabelled peptide 43437 (1 µM) binding competition assay involved using different non-radiolabelled peptide 42438 concentrations (0–160 µM).

[5] = target: receptor on bovine erythrocytes having an apparent 75 kDa molecular weight (bovine (endogenous in bovine erythrocytes)); experiment: radioligand binding; saturation: 7.5 x 10^7 bovine erythrocytes, 125I-peptide 0-6000 nM without or with ~26 μM unlabelled peptide, 245 μL, 90 min at RT, HBS washes; 1:1 model, Hill plot
[6] = target: receptor on bovine erythrocytes having an apparent 75 kDa molecular weight (bovine (endogenous in bovine erythrocytes)); experiment: radioligand binding; as the screen but on erythrocytes treated beforehand with trypsin (1 mg/mL), chymotrypsin (1 mg/mL) or neuraminidase (100 μU/mL); 1 h at 37 °C without shaking; untreated erythrocytes as control

For RGVGMNWATYDKDSG [^395R-G^409], which “interaction with bovine erythrocytes (binding activity, in words)” value ([1]; radiolabelled peptide-cell interaction assay, Figure 1b) is on record?
The value was “did not interact with bovine erythrocytes”.

What does the source list for CPMHPVRDAIFGKWSGGSCV [compound 42443]?
specific binding slope (binding activity) ([1]; 7.5 × 10^7 normal cells, 2 h at RT, radiolabelled peptide 20–200 nM, absence or presence of non-radiolabelled peptide 20 μM, 200 μL, triplicate, HABP if slope ≥0.01 (1%)): > 0.01; reduction of binding with chymotrypsin-treated erythrocytes ([2]; erythrocytes treated with chymotrypsin 1 mg/mL): 46%; reduction of binding with neuraminidase-treated erythrocytes ([2]; erythrocytes treated with neuraminidase 100 μU/mL): 42%; reduction of binding with trypsin-treated erythrocytes ([2]; erythrocytes treated with trypsin 1 mg/mL): a lesser effect; Kd [3]: 2400 nM; intensity of cross-linking interaction with the receptor [4]: significantly less intense

B1: B. bovis AMA-1 Domain I-derived peptide 42437 (peptide)
peptide: YMQKFDIPRNHGSGIYVDLG
modifications: also: 125I radio-iodination, site not given here
Which Kd [5] does the source give for B1 here?
Its Kd is 1100 nM.

And the percent reduction of binding, chymotrypsin-treated against untreated erythrocytes [6]?
The percent reduction of binding, chymotrypsin-treated against untreated erythrocytes was 58%.

And the percent reduction of binding, neuraminidase-treated against untreated erythrocytes [6]?
Its percent reduction of binding, neuraminidase-treated against untreated erythrocytes is 36%.

And the percent reduction of binding, trypsin-treated against untreated erythrocytes [6]?
Its percent reduction of binding, trypsin-treated against untreated erythrocytes is 31%.

B2: B. bovis AMA-1 Domain I-derived peptide 42438 (peptide)
peptide: GYESVGSKSYRMPVGKSPVV
modifications: also: 125I radio-iodination in tracer use, site not given here
Which results are given for B2?
Kd [5]: 1300 nM; percent reduction of binding, chymotrypsin-treated against untreated erythrocytes [6]: 66%
